Assay results from US12600728B2, “Interleukin-17 inhibitors” (priority 2020, dated 2026).
Read-outs that look alike come from different tables or passages of the source.

Experiments:
[1] = molecular target: recombinant human IL-17AA (Homo sapiens, UniProt Q16552); test: IL-6 release from NHDF cells, IL-17AA plus TNF-α stimulation; assay type: cell-based; conditions: IL-17AA 30 pM plus TNF-α 6 pM, 24 hours, IL-6 by ELISA
Procedure, shortened: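 ELISA measured IL-6 in supernatants after 24 h at 37° C of NHDF cells with a compound/cytokine cocktail, pre-mixed 30 min at room temperature. Duplicates; 0.1% DMSO or 20% plasma final. IC50 from IL-6 remaining after subtracting the TNF-α-alone signal.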

[2] = molecular target: biotinylated human IL-17A / AF647-labeled human IL-17RA (Homo sapiens, UniProt Q16552); test: Human IL-17A×IL-17RA TR-FRET assay; assay type: binding; conditions: biotinylated human IL-17A 5 nM, AF647-labeled human IL-17RA 30 nM
Procedure, shortened: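 Compounds tested in duplicate at each concentration; neutral controls contain all components with DMSO in place of compound.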

[3] = NHDF cells, read-out: IL17AA + TNF IC50 IL-6
[4] = TR-FRET, read-out: IL17AA FRET/ IL17Rawt IC50

Sequence of recombinant human IL-17AA (Q16552 24-155): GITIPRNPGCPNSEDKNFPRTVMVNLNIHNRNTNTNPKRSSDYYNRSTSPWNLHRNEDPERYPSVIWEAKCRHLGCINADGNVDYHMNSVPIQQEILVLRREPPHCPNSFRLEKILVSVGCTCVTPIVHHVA
Sequence of biotinylated human IL-17A / AF647-labeled human IL-17RA (Q16552 24-155): as above

Row | SMILES | IC50 [1, 3] | IC50 [2, 4] | IC50 ([1]; IL17AA + TNF IC50 IL-6, NHDF cells) | IC50 ([2]; IL17AA FRET/ IL17Rawt IC50, TR-FRET)
1 | Cc1cc[n+]([O-])c(C)c1-c1ccc(NC(=O)[C@@H](NC(=O)c2ccnn2C(C)C)[C@H]2CCCc3ccccc32)cc1 [Example 50, 3-(4-((S)-2-(1-isopropyl-1H-pyrazole-5-carboxamido)-2-((S)-1,2,3,4-tetrahydronaphthalen-1-yl)acetamido)phenyl)-2,4-dimethylpyridine 1-oxide] | 1 nM | 23 nM | – | –
2 | CCc1nocc1C(=O)NC(C(=O)Nc1ccc(-c2c(Cl)cc[n+]([O-])c2C)cc1)C1CCC(F)(F)CC1 (centres unmarked) [Example 51, 4-chloro-3-(4-(2-(4,4-difluorocyclohexyl)-2-(3-ethylisoxazole-4-carboxamido)acetamido)phenyl)-2-methylpyridine 1-oxide] | 62 nM | 66 nM | – | –
3 | Cc1c(-c2ccc(NC(=O)C(NC(=O)c3ccnn3C)C3CCC(C)CC3)cc2F)c(Cl)cc[n+]1[O-] [Example 56, 4-chloro-3-(2-fluoro-4-((S)-2-(1-methyl-1H-pyrazole-5-carboxamido)-2-((1r,4S)-4-methylcyclohexyl)acetamido)phenyl)-2-methylpyridine 1-oxide] | – | – | 4 nM | 21 nM
4 | Cc1c(-c2ccc(NC(=O)[C@@H](NC(=O)c3ccnn3C)C3CCCCC3)c(F)c2)c(Cl)cc[n+]1[O-] [Example 59, (S)-4-chloro-3-(4-(2-cyclohexyl-2-(1-methyl-1H-pyrazole-5-carboxamido)acetamido)-3-fluorophenyl)-2-methylpyridine 1-oxide] | 56 nM | 49 nM | – | –
5 | Cc1c(-c2ccc(NC(=O)[C@@H](NC(=O)c3ccnn3C)C3CCCCC3)nc2)c(Cl)cc[n+]1[O-] [Example 60, (S)-4-chloro-6′-(2-cyclohexyl-2-(1-methyl-1H-pyrazole-5-carboxamido)acetamido)-2-methyl-[3,3′-bipyridine] 1-oxide] | 236 nM | 123 nM | – | –
6 | Cc1c(-c2ccc(NC(=O)[C@@H](NC(=O)c3ccnn3C)C3CCCCC3)c(F)c2F)c(Cl)cc[n+]1[O-] [Example 62, 4-chloro-3-(4-((S)-2-cyclohexyl-2-(1-methyl-1H-pyrazole-5-carboxamido)acetamido)-2,3-difluorophenyl)-2-methylpyridine 1-oxide] | 7 nM | 15 nM | – | –
7 | Cc1c(-c2ccc(NC(=O)[C@@H](NC(=O)c3ccnn3C)C3CCCCC3)cc2F)c(C(F)(F)F)cc[n+]1[O-] [Example 66, 3-(4-((S)-2-cyclohexyl-2-(1-methyl-1H-pyrazole-5-carboxamido)acetamido)-2-fluorophenyl)-2-methyl-4-(trifluoromethyl)pyridine 1-oxide] | 4 nM | 18 nM | – | –
8 | CCn1nccc1C(=O)NC(C(=O)Nc1ccc(-c2c(Cl)cc[n+]([O-])c2C)cc1)C1CC2CC2C1 (centres unmarked) [Example 70, 3-(4-(2-(bicyclo[3.1.0]hexan-3-yl)-2-(1-ethyl-1H-pyrazole-5-carboxamido)acetamido)phenyl)-4-chloro-2-methylpyridine 1-oxide] | 26 nM | 84 nM | – | –

More lines, main results first:

Row | IC50 [1, 3] | IC50 [2, 4] | SMILES | IC50 ([1]; IL17AA + TNF IC50 IL-6, NHDF cells) | IC50 ([2]; IL17AA FRET/ IL17Rawt IC50, TR-FRET)
9 | 80 nM | 43 nM | Cc1c(-c2ccc(NC(=O)[C@@H](NC(=O)c3ccnn3C)C3CCC(F)(F)CC3)cc2)c(Cl)cc[n+]1[O-] [Example 52, (S)-4-chloro-3-(4-(2-(4,4-difluorocyclohexyl)-2-(1-methyl-1H-pyrazole-5-carboxamido)acetamido)phenyl)-2-methylpyridine 1-oxide] | – | –
10 | 86 nM | 16 nM | Cc1cc[n+]([O-])c(C)c1-c1ccc(NC(=O)[C@@H](NC(=O)c2ccoc2C)C2CCCCC2)cc1 [Example 53, (S)-3-(4-(2-cyclohexyl-2-(2-methylfuran-3-carboxamido)acetamido)phenyl)-2,4-dimethylpyridine 1-oxide] | – | –
11 | 27 nM | 38 nM | Cc1c(-c2ccc(NC(=O)[C@@H](NC(=O)c3ccnn3C)C3CC=C(F)CC3)cc2)c(Cl)cc[n+]1[O-] (stereo partly drawn) [Example 55, 4-chloro-3-(4-((2S)-2-(4-fluorocyclohex-3-en-1-yl)-2-(1-methyl-1H-pyrazole-5-carboxamido)acetamido)phenyl)-2-methylpyridine 1-oxide] | – | –
12 | 12 nM | 37 nM | Cc1nocc1C(=O)NC(C(=O)Nc1ccc(-c2c(Cl)cc[n+]([O-])c2C)c(F)c1)[C@H]1C[C@@H]2C[C@@H]2C1 (stereo partly drawn) [Example 57, 3-(4-(2-((1R,3s,5S)-bicyclo[3.1.0]hexan-3-yl)-2-(3-methylisoxazole-4-carboxamido)acetamido)-2-fluorophenyl)-4-chloro-2-methylpyridine 1-oxide] | – | –
13 | 12 nM | 44 nM | CCn1nccc1C(=O)NC(C(=O)Nc1ccc(-c2c(Cl)cc[n+]([O-])c2C)c(F)c1)[C@H]1C[C@@H]2C[C@@H]2C1 (stereo partly drawn) [Example 58, 3-(4-(2-((1R,3s,5S)-bicyclo[3.1.0]hexan-3-yl)-2-(1-ethyl-1H-pyrazole-5-carboxamido)acetamido)-2-fluorophenyl)-4-chloro-2-methylpyridine 1-oxide] | – | –
14 | 16 nM | 18 nM | Cc1c(-c2c(F)cc(NC(=O)[C@@H](NC(=O)c3ccnn3C)C3CCCCC3)cc2F)c(Cl)cc[n+]1[O-] [Example 61, (S)-4-chloro-3-(4-(2-cyclohexyl-2-(1-methyl-1H-pyrazole-5-carboxamido)acetamido)-2,6-difluorophenyl)-2-methylpyridine 1-oxide] | – | –
15 | 57 nM | 247 nM | Cc1c(-c2cc(F)c(NC(=O)[C@@H](NC(=O)c3ccnn3C)C3CCCCC3)cc2F)c(Cl)cc[n+]1[O-] [Example 63, 4-chloro-3-(4-((S)-2-cyclohexyl-2-(1-methyl-1H-pyrazole-5-carboxamido)acetamido)-2,5-difluorophenyl)-2-methylpyridine 1-oxide] | – | –
16 | 24 nM | 57 nM | Cc1c(-c2ccc(NC(=O)[C@@H](NC(=O)c3ccnn3C)C3CC=C(F)CC3)cc2)c(C(F)(F)F)cc[n+]1[O-] (stereo partly drawn) [Example 65, 3-(4-((2S)-2-(4-fluorocyclohex-3-en-1-yl)-2-(1-methyl-1H-pyrazole-5-carboxamido)acetamido)phenyl)-2-methyl-4-(trifluoromethyl)pyridine 1-oxide] | – | –
17 | 15 nM | 124 nM | Cc1c(-c2ccc(NC(=O)[C@@H](NC(=O)c3ccnn3C)C3CCCCC3)cc2)c(C(F)(F)F)cc[n+]1[O-] [Example 67, (S)-3-(4-(2-cyclohexyl-2-(1-methyl-1H-pyrazole-5-carboxamido)acetamido)phenyl)-2-methyl-4-(trifluoromethyl)pyridine 1-oxide] | – | –
18 | 16 nM | 76 nM | Cc1cc[n+]([O-])c(C)c1-c1ccc(NC(=O)[C@@H](NC(=O)c2ccnn2C(C)C)C(c2ccccc2)c2ccccc2)cc1 [Example 68, (S)-3-(4-(2-(1-isopropyl-1H-pyrazole-5-carboxamido)-3,3-diphenylpropanamido)phenyl)-2,4-dimethylpyridine 1-oxide] | – | –
19 | 20 nM | 90 nM | Cc1c(-c2ccc(NC(=O)[C@@H](NC(=O)c3ccnn3C)C(c3ccccc3)c3ccccc3)cc2)c(Cl)cc[n+]1[O-] [Example 69, (S)-4-chloro-2-methyl-3-(4-(2-(1-methyl-1H-pyrazole-5-carboxamido)-3,3-diphenylpropanamido)phenyl)pyridine 1-oxide] | – | –
